Test results from US10065961B2, “Chiral N-acyl-5,6,7,(8-substituted)-tetrahydro-[1,2,4]triazolo[4,3-a]pyrazines as selective NK-3 receptor antagonists, pharmaceutical composition, methods for use in NK-3 receptor mediated disorders and chiral synthesis thereof” (Euroscreen S.A., priority 2011, dated 2018).

Tests used:
human NK2 receptor = human NK2 receptor (Homo sapiens (Human), UniProt P21452); assay: Human NK2 radioligand binding assay ([125I]-Neurokinin A)
Protocol: (§1) Membrane suspensions were prepared from these cells.

human NK1 receptor = human NK1 receptor (Homo sapiens (Human), UniProt P25103); assay: Human NK1 radioligand binding assay ([3H] substance P)
Sequence of human NK1 receptor (P25103 whole entry): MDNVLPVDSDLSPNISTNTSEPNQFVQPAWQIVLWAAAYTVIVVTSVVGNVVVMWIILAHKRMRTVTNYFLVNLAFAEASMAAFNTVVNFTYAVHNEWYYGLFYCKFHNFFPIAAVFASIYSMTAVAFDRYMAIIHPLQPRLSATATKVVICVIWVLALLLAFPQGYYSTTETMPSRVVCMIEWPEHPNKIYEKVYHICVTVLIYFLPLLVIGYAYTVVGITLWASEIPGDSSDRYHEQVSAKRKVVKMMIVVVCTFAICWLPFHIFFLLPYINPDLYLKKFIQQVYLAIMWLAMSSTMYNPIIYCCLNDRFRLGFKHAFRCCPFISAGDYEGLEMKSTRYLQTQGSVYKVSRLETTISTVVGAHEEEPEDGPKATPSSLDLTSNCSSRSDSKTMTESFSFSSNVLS
Protocol: as §1

circulating LH levels = assay: Castrated male rat model, circulating levels of luteinizing hormone (LH); assay type: in vivo; details: castrated male Sprague-Dawley rats, single intravenous 10 mg/kg dose, 1 hour after dosing
Protocol: 1 on lutenizing hormone (‘LH’) plasma levels in castrated male, Sprague-Dawley rats measured 1 hour after dosing. […] Vehicle, N=10 rats; Compound no. 1, N=9 rats.
19 on lutenizing hormone (‘LH’) plasma levels in castrated male, Sprague-Dawley rats measured 1 hour after dosing. […] Vehicle, n=5 rats; Compound no. 19, n=5 rats.
Castrated Male Rat Model to Assess the Effect of Compound of Invention on Circulating Levels of Luteinizing Hormone (LH).
In humans and rodents, castration is well-precedented to permit heightened, persistent GnRH signaling and consequent elevation of circulating LH. Thus, a castrated rat model is used to provide a broad index for measurement of LH inhibition as a marker of test compound inhibition of the GnRH signaling pathway.
Castrated adult male Sprague-Dawley (SD) rats (150-175 g,) were purchased from Janvier (St Berthevin, France). […] The animals were allowed 2 weeks of postoperative recovery prior to study. Animals were handled on a daily basis. Standard diet and tap water were provided ad libitum. Animal cage litters were changed once a week. […]
After basal sampling (T0) a single dose of compounds of the invention or vehicle was administrated intravenously to rats. […] Serum LH levels were determined using radioimmunoassay kit from RIAZEN—Rat LH, Zentech (Liège, Belgium). […]

[1] = test system: plasma testosterone levels; assay: Gonad-intact adult male rat, circulating levels of testosterone; details: gonad-intact male Sprague-Dawley rats, single intravenous 50 mg/kg dose, over 210 minute test period (AUC)

Sequence of human NK2 receptor (P21452 whole entry): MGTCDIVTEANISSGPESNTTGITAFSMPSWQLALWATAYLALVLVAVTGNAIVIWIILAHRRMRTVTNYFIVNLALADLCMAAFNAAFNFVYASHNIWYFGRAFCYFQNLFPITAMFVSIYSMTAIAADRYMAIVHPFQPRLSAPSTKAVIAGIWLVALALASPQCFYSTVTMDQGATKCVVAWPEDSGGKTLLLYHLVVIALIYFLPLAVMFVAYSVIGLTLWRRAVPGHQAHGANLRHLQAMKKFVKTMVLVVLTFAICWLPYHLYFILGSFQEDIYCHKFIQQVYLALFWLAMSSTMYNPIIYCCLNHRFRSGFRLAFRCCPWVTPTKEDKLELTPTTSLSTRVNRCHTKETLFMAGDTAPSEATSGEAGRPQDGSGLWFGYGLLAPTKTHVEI

Structure (SMILES) | inhibition at 10 µM (human NK2 receptor) [%] | inhibition at 10 µM (human NK1 receptor) [%] | circulating LH levels (circulating LH levels) | plasma testosterone levels [1]
Cc1nc(-c2nnc3n2CCN(C(=O)c2ccc(-c4cccs4)cc2)[C@@H]3C)co1 [compound 11, (R)-(8-methyl-3-(2-methyloxazol-4-yl)-5,6-dihydro-[1,2,4]triazolo[4,3-a]pyrazin-7(8H)-yl)(4-(thiophen-2-yl)phenyl)methanone] | < 25 | < 10 | – | –
Cc1csc(-c2nnc3n2CCN(C(=O)c2ccc(-c4cccs4)cc2)[C@@H]3C)n1 [Compound no. 19, (R)-(8-methyl-3-(4-methylthiazol-2-yl)-5,6-dihydro-[1,2,4]triazolo[4,3-a]pyrazin-7(8H)-yl)(4-(thiophen-2-yl)phenyl)methanone] | – | – | significantly suppressed | –
Cc1nc(-c2nnc3n2CCN(C(=O)c2ccc(-c4cccs4)cc2)[C@@H]3C)cs1 [Compound no. 1, (R)-(8-methyl-3-(2-methylthiazol-4-yl)-5,6-dihydro-[1,2,4]triazolo[4,3-a]pyrazin-7(8H)-yl)(4-(thiophen-2-yl)phenyl)methanone] | – | – | significantly suppressed | significantly suppressed
Cc1nc(-c2nnc3n2CCN(C(=O)c2ccc(-c4cccs4)cc2)C3)cs1 [compound 3, (3-(2-methylthiazol-4-yl)-5,6-dihydro-[1,2,4]triazolo[4,3-a]pyrazin-7(8H)-yl)(4-(thiophen-2-yl)phenyl)methanone] | < 10 | < 10 | – | –
C[C@@H]1c2nnc(-c3cccc(O)n3)n2CCN1C(=O)c1ccc(-c2cccs2)cc1 [compound 31, (R)-(3-(6-hydroxypyridin-2-yl)-8-methyl-5,6-dihydro-[1,2,4]triazolo[4,3-a]pyrazin-7(8H)-yl)(4-(thiophen-2-yl)phenyl)methanone] | < 10 | < 10 | – | –
